In patent US12653873B2, “Peptide antigens and uses thereof” (HUMANITAS MIRASOLE S.P.A., priority 2019, dated 2026):

Legend:
Assay type in all cases: in vivo, mouse
[1] = system: C57BL6/J mice; test: Immunization of healthy mice with single peptides in CFA/IFA, echocardiography; conditions: echocardiography at 2, 5 and 9 weeks after first subcutaneous injection; 100 μg peptide in CFA day 0, IFA boost day 21; vs CTR-
Procedure: C57BL6/J 8-week-old male mice were screened at baseline for heart functionality, via echocardiography, and randomly divided into 5 experimental groups. Mice belonging to control group (CTR−, only CFA) were injected subcutaneously (immunized, but without antigen: negative control) with 100 μl Complete Freud's Adjuvant (CFA) at day 0 and boosted with 100 μl of Incomplete Freud's Adjuvant (IFA) on day 21. Mice belonging to group 3 (CTR+) were injected subcutaneously (immunized, known antigen: positive control) with 100 μg of each of the three peptides (SEQ ID NOs. 15-17) derived from beta-adrenergic receptor and listed in the Table of FIG. 4, emulsified in Complete Freud's Adjuvant (CFA) at day 0 and boosted with 100 μg of the three peptides emulsified in Incomplete Freud's Adjuvant (IFA) on day 21. Mice belonging to group 4_A (Peptide 4_A) were injected subcutaneously (immunized) with 100 μg of the peptide of SEQ ID NO. 1, derived from 14-3-3 protein, emulsified in Complete Freud's Adjuvant (CFA) at day 0 and boosted with 100 μg of each of the three peptides emulsified in Incomplete Freud's Adjuvant (IFA) on day 21. Mice belonging to group 4_B (Peptide 4_B) were injected subcutaneously (immunized) with 100 μg of the peptide of SEQ ID NO. 5, derived from Snrpd1 protein, emulsified in Complete Freud's Adjuvant (CFA) at day 0 and boosted with 100 μg of each of the three peptides emulsified in Incomplete Freud's Adjuvant (IFA) on day 21. Mice belonging to group 4_C (Peptide 4_C) were injected subcutaneously (immunized) with 100 μg of the peptide of SEQ ID NO. 14, derived from Atp5o protein, emulsified in Complete Freud's Adjuvant (CFA) at day 0 and boosted with […] of each of the three peptides emulsified in Incomplete Freud's Adjuvant (IFA) on day 21. On day 0 and day 2, all the mice were intraperitoneally injected with 200 ng of Pertussis Toxin. Heart functionality of all mice was analyzed via echocardiography at 2, 5 and 9 weeks after the first subcutaneous injection. In FIG. 7, the results of echocardiography analysis of cardiac functionality parameters % FS and % EF of C57BL6/J mice immunized with the peptide of SEQ ID NO. 1 (14-3-3 protein), the peptide of SEQ ID NO. 5 (Snrpd1 protein), or the peptide of SEQ ID NO. 14 (Atp5o protein) are shown. […] Data are plotted as mean±SEM, (n=4-6). Two-way ANOVA and Tukey's multiple comparison test with matching subjects. * p<0.05, ** p<0.01, ***p<0.001.

[2] = system: Aldehyde dehydrogenase (ALDH); test: Aldefluor FACS analysis of dendritic cells from mesenteric lymph nodes after oral tolerance induction; conditions: eight weeks after oral tolerance induction in TAC-operated mice; vs PBS alone
Procedure: Briefly, eight weeks after oral tolerance induction in TAC-operated mice, mesenteric lymph nodes (MLN) were collected and dendritic cells (DC) were isolated for FACS analysis. Aldehyde dehydrogenase (ALDH) production of retinoic acid from the DC was measured via Aldefluor Fluorescent dye. FACS analysis of DC isolated from MLN of mice fed with the peptides of SEQ ID NO. […] Retinoic acid produced by tolerogenic DC contributes to Regulatory T cell (Treg) generation, essential for tolerance induction. […] Data are plotted as mean±SEM, (n=7-8). Unpaired t-test. * p<0.05.

[3] = system: C57BL6/J mice; test: Immunization of healthy mice with pooled peptides in CFA/IFA, echocardiography; conditions: echocardiography at 2, 5 and 9 weeks after first subcutaneous injection; 100 μg of each peptide in CFA day 0, IFA boost day 21; vs CTR- (only CFA)
Procedure: In order to validate the functional relevance of identified antigens recognized by T cells driving HF, the inventors conducted the experiments as described below and schematically represented in FIG. 5.
Briefly, C57BL6/J 8-week-old male mice were screened, via echocardiography, at baseline for heart functionality and randomly divided into three experimental groups. Mice belonging to the negative control group (CTR−, only CFA) were injected subcutaneously (immunized) with 100 μl Complete Freud's Adjuvant (CFA) at day 0 and boosted with 100 μl of Incomplete Freud's Adjuvant (IFA) on day 21, without any antigen. […] Heart functionality of all mice was analyzed via echocardiography at 2, 5 and 9 weeks after the first subcutaneous injection.
The immunization experiments of healthy mice with peptides derived from beta-adrenergic receptor and from 14-3-3, Snrpd1, and Atp5o lead to cardiac dysfunction. […] Left ventricle functionality was measured as % FS (FIG. 6A) and Ejection Fraction (% EF) (FIG. 6B), which measure the volumetric capacity of the left ventricle to pump blood. […]

[4] = system: TAC-operated mice; test: Oral tolerance protocol followed by induction of Heart Failure via TAC, echocardiography; conditions: oral gavage 0.8 mg per day of each peptide for 4 days, TAC on day 7; 8 weeks after surgery; vs PBS alone
Procedure: To assess preventive protection potential of oral tolerance with the newly identified peptides from the development of Heart Failure, the inventors pursued an oral tolerance protocol to induce cardio-specific tolerance for the peptides, followed by active induction of Heart Failure via TAC.
Briefly, C57BL6/J 8-week-old male mice were screened at baseline via echocardiography. Each mouse was orally fed with 0.8 mg of each peptide from group 4: the peptide of SEQ ID NO. 1 (14-3-3 protein), the peptide of SEQ ID NO. 5 (Snrpd1 protein), and the peptide of SEQ ID NO. 14 (Atp5o protein) (i.e. 0.8 mg per day of each peptide, thus 2.4 mg/day in total), diluted in 600 μl of Phosphate Buffered-Saline (PBS) or plain PBS (as control) via oral feeding (oral gavage) for 4 days in a row. Three days after the end of this procedure, on day 7, the mice underwent TAC surgery, to experimentally induce Heart Failure. Echocardiographies were performed on both groups of mice to monitor their cardiac functionality at 2, 4 and 8 weeks after TAC-surgery. […] Data were plotted as mean±SEM, (n=8-11). Two-way ANOVA and Tukey's multiple comparison test with matching subjects. ** p<0.01, ***p<0.001.

Peptide 4_B: peptide of SEQ ID NO. 5, derived from Snrpd1 protein (EPVQLETLSIRGNNIRYFILPDSLP; listed as Homo sapiens)
% EF [1]: significantly reduced | % FS [1]: significantly reduced

Peptide 4_C: peptide of SEQ ID NO. 14, derived from mouse Atp5o protein (LTANLMNLLAENGRL; listed as Mus musculus)
% EF [1]: significantly reduced | % FS [1]: significantly reduced

Group 4: combination of the three peptides of SEQ ID NOs. 1, 5 and 14, derived from murine 14-3-3, Snrpd1 and Atp5o proteins (chain 1 LGLALNFSVFYYEIL; chain 2 EPVQLETLSIRGNNIRYFILPDSLP; chain 3 LTANLMNLLAENGRL; listed as Homo sapiens, listed as Mus musculus)
ALDH activity of DC isolated from MLN [2]: significant increase in ALDH activity | mean fluorescence intensity (MFI) of Aldefluor dye in DC [2]: significant increase | percentage of ALDH positive DC [2]: significant increase | cardiac functionality, % FS [3]: significant reduction of cardiac functionality | cardiac functionality, Ejection Fraction (% EF) [3]: significant reduction of cardiac functionality | cardiac functionality, % EF [4]: significantly better cardiac functionality | cardiac functionality, % FS [4]: significantly better cardiac functionality

Peptide 4_A: peptide of SEQ ID NO. 1, derived from 14-3-3 protein (LGLALNFSVFYYEIL; listed as Homo sapiens)
% EF [1]: significantly reduced | % FS [1]: significantly reduced
